# *1 amine or outer side, *2 acyl side, *3 side chain or, on linkers, in order; H or OH if unused. Where a SMILES comes first, the peptide text is derived from it. [ ]: non-standard residue; d: D form. The star is where a group is joined. Benzoyl(4-(4-EtNHCO-PhO)) = CCNC(=O)c1ccc(Oc2ccc(C(=O)*)cc2)cc1; Benzoyl(4-O-C6H4-4-CONHMe) = CNC(=O)c1ccc(Oc2ccc(C(=O)*)cc2)cc1; Benzoyl(4-OPh(4-CONH2)) = NC(=O)c1ccc(Oc2ccc(C(=O)*)cc2)cc1; X11 = O=C(O)CCCCNC(=O)c1ccc(Oc2ccc(C(=O)*)cc2)cc1; X4 = NC(=O)CCCCNC(=O)c1ccc(Oc2ccc(C(=O)*)cc2)cc1; X13 = Cc1ccc(C#Cc2ccc(S(=O)(=O)*)s2)cc1; εLys = N[C@@H](CCCCN[*:1])C(=O)[*:2]; NMeI = CC[C@H](C)[C@H](NC)C(=O)O; NMeE = CN[C@@H](CCC(=O)O)C(=O)O; NMeM = CN[C@@H](CCSC)C(=O)O; NMeV = CN[C@H](C(=O)O)C(C)C; β3hP = O=C(O)C[C@@H]1CCCN1; Orn = NCCC[C@H](N)C(=O)O; Dab = NCC[C@H](N)C(=O)O; X18 = NC(=O)[C@H](N)CN*; Ahx = NCCCCCC(=O)O; Ava = NCCCCC(=O)O; GABA = NCCCC(=O)O; βAla = NCCC(=O)O
# Biological target: T1, MMP2 (Homo sapiens, UniProt P08253)
# T1 sequence (P08253 110-660): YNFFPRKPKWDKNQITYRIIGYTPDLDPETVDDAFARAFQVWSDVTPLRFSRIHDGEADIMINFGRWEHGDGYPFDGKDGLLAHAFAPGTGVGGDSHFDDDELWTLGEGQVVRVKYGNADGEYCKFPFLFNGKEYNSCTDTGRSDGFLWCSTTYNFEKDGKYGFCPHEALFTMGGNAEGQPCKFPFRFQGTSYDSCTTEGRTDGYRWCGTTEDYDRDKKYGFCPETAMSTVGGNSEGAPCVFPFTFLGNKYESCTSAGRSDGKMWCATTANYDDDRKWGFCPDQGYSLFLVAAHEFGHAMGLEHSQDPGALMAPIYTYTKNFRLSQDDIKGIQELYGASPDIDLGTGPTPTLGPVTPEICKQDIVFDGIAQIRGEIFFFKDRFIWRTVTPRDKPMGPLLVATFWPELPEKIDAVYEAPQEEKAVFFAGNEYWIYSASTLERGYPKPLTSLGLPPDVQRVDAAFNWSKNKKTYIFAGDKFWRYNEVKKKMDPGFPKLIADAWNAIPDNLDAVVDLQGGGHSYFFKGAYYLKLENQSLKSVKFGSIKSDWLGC
# Experiment: Inhibitory effects on human MMP2 (Method 1), enzyme assay with MOCAc-Pro-Leu-Gly-Leu-A2pr(Dnp)-Ala-Arg-NH2 substrate, 96-well
# Assay type: biochemical
# Details: Test Example No. 1-1 (Method 1, 96-well microplate); read-out: Human MMP2, IC50
# Method: In a reaction solution [50 mmol/L Tris-HCl (pH 7.5), 150 mmol/L NaCl, 10 mmol/L CaCl2, 0.05% Brij L23], 100 μg/mL human recombinant MMP2 enzyme and 1 mmol/L 4-Aminophenylmercuric acetate were mixed together, and reacted at 37° C. for 60 minutes. The human MMP2 activated through the reaction was poured into a 96-well microplate to reach a final concentration of 0.7 or 7 ng/mL.
row,IC50 [nM],Structure (SMILES)
1,0.61,CNC(=O)c1ccc(Oc2ccc(C(=O)NCCCCC(=O)N[C@@H](CCCCN)C(=O)N[C@@H](CC(=O)O)C(=O)N[C@@H](CCN)C(=O)N[C@@H](CC(C)C)C(=O)N(C)[C@@H](CCC(=O)O)C(=O)N3CCC[C@H]3CC(N)=O)cc2)cc1 [Compound 184] ({Benzoyl(4-O-C6H4-4-CONHMe)-Ava}-KD[Dab]L[NMeE][β3hP]-NH2; N-terminus assumed)
2,1,CC[C@H](C)[C@@H](C(=O)N1CCC[C@H]1CC(N)=O)N(C)C(=O)[C@H](CC(C)C)NC(=O)[C@H](CCN)NC(=O)[C@H](CC(=O)O)NC(=O)[C@H](CCCCN)NC(=O)CCCCNC(=O)c1ccc(Oc2ccc(C(=O)NC)cc2)cc1 [Compound 185] ({Benzoyl(4-O-C6H4-4-CONHMe)-Ava}-KD[Dab]L[NMeI][β3hP]-NH2; N-terminus assumed)
3,0.86,CC[C@H](C)[C@@H](C(=O)N1CCC[C@H]1CC(N)=O)N(C)C(=O)[C@H](CC(C)C)NC(=O)[C@H](CCN)NC(=O)[C@H](CC(=O)O)NC(=O)[C@H](CCCNC(=N)N)NC(=O)CCCCNC(=O)c1ccc(Oc2ccc(C(=O)NC)cc2)cc1 [Compound 189] ({Benzoyl(4-O-C6H4-4-CONHMe)-Ava}-RD[Dab]L[NMeI][β3hP]-NH2; N-terminus assumed)
4,1.8,CNC(=O)c1ccc(Oc2ccc(C(=O)NCCCCCC(=O)N[C@@H](CCCNC(=N)N)C(=O)N[C@@H](CC(=O)O)C(=O)N[C@@H](CCN)C(=O)N[C@@H](CC(C)C)C(=O)N(C)[C@@H](CCC(=O)O)C(=O)N3CCC[C@H]3CC(N)=O)cc2)cc1 [Compound 190] ({Benzoyl(4-O-C6H4-4-CONHMe)-Ahx}-RD[Dab]L[NMeE][β3hP]-NH2; N-terminus assumed)
5,1.7,CCNC(=O)c1ccc(Oc2ccc(C(=O)NCCCCC(=O)N[C@@H](CCCCN)C(=O)N[C@@H](CC(=O)O)C(=O)N[C@@H](CCN)C(=O)N[C@@H](CC(C)C)C(=O)N(C)[C@H](C(=O)N3CCC[C@H]3CC(N)=O)[C@@H](C)CC)cc2)cc1 [Compound 193] ({Benzoyl(4-(4-EtNHCO-PhO))-Ava}-KD[Dab]L[NMeI][β3hP]-NH2; N-terminus assumed)
6,3.7,CCNC(=O)c1ccc(Oc2ccc(C(=O)NCCCCCC(=O)N[C@@H](CCCCN)C(=O)N[C@@H](CC(=O)O)C(=O)N[C@@H](CCN)C(=O)N[C@@H](CC(C)C)C(=O)N(C)[C@@H](CCC(=O)O)C(=O)N3CCC[C@H]3CC(N)=O)cc2)cc1 [Compound 194] ({Benzoyl(4-(4-EtNHCO-PhO))-Ahx}-KD[Dab]L[NMeE][β3hP]-NH2; N-terminus assumed)
7,0.35,CC(C)C[C@H](NC(=O)[C@H](CCN)NC(=O)[C@H](CC(=O)O)NC(=O)[C@H](CCC(N)=O)NC(=O)[C@@H](N)CCCNC(=O)c1ccc(Oc2ccc(C(N)=O)cc2)cc1)C(=O)N(C)[C@H](C(=O)NC[C@@H](N)C(N)=O)C(C)C [Compound 536] (H-[Orn](Benzoyl(4-OPh(4-CONH2)))QD[Dab]L[NMeV]-X18)
8,0.19,"CSCC[C@@H](C(=O)N1CCC[C@H]1C(N)=O)N(C)C(=O)[C@H](CC(C)C)NC(=O)[C@H](C)NC(=O)[C@H](CC(=O)O)NC(=O)[C@H](CC(N)=O)NC(=O)CCNS(=O)(=O)c1ccc(C#Cc2ccc(C)cc2)s1 [Compound 587, N-{5-[(4-methylphenyl)ethynyl]thiophene-2-sulfonyl}-β-alanyl-L-asparaginyl-L-α-aspartyl-L-alanyl-L-leucyl-N-methyl-L-methionyl-L-prolinamide] ({X13-βAla}-NDAL[NMeM]P-NH2)"
9,0.12,CSCC[C@@H](C(=O)N1CCC[C@H]1C(N)=O)N(C)C(=O)[C@H](CC(C)C)NC(=O)[C@H](C)NC(=O)[C@H](CC(=O)O)NC(=O)[C@H](CC(N)=O)NC(=O)CCCNS(=O)(=O)c1ccc(C#Cc2ccc(C)cc2)s1 [Compound 588] ({X13-GABA}-NDAL[NMeM]P-NH2; N-terminus assumed)

# Further lines, the compound ahead of its results:
row,Structure (SMILES),IC50 [nM]
1,CNC(=O)c1ccc(Oc2ccc(C(=O)NCCCCCC(=O)N[C@@H](CCCCN)C(=O)N[C@@H](CC(=O)O)C(=O)N[C@@H](CCN)C(=O)N[C@@H](CC(C)C)C(=O)N(C)[C@@H](CCC(=O)O)C(=O)N3CCC[C@H]3CC(N)=O)cc2)cc1 [Compound 186] ({Benzoyl(4-O-C6H4-4-CONHMe)-Ahx}-KD[Dab]L[NMeE][β3hP]-NH2; N-terminus assumed),2
2,CC[C@H](C)[C@@H](C(=O)N1CCC[C@H]1CC(N)=O)N(C)C(=O)[C@H](CC(C)C)NC(=O)[C@H](CCN)NC(=O)[C@H](CC(=O)O)NC(=O)[C@H](CCCCN)NC(=O)CCCCCNC(=O)c1ccc(Oc2ccc(C(=O)NC)cc2)cc1 [Compound 187] ({Benzoyl(4-O-C6H4-4-CONHMe)-Ahx}-KD[Dab]L[NMeI][β3hP]-NH2; N-terminus assumed),2.8
3,CNC(=O)c1ccc(Oc2ccc(C(=O)NCCCCC(=O)N[C@@H](CCCNC(=N)N)C(=O)N[C@@H](CC(=O)O)C(=O)N[C@@H](CCN)C(=O)N[C@@H](CC(C)C)C(=O)N(C)[C@@H](CCC(=O)O)C(=O)N3CCC[C@H]3CC(N)=O)cc2)cc1 [Compound 188] ({Benzoyl(4-O-C6H4-4-CONHMe)-Ava}-RD[Dab]L[NMeE][β3hP]-NH2; N-terminus assumed),0.81
4,CC[C@H](C)[C@@H](C(=O)N1CCC[C@H]1CC(N)=O)N(C)C(=O)[C@H](CC(C)C)NC(=O)[C@H](CCN)NC(=O)[C@H](CC(=O)O)NC(=O)[C@H](CCCNC(=N)N)NC(=O)CCCCCNC(=O)c1ccc(Oc2ccc(C(=O)NC)cc2)cc1 [Compound 191] ({Benzoyl(4-O-C6H4-4-CONHMe)-Ahx}-RD[Dab]L[NMeI][β3hP]-NH2; N-terminus assumed),2.7
5,CCNC(=O)c1ccc(Oc2ccc(C(=O)NCCCCC(=O)N[C@@H](CCCCN)C(=O)N[C@@H](CC(=O)O)C(=O)N[C@@H](CCN)C(=O)N[C@@H](CC(C)C)C(=O)N(C)[C@@H](CCC(=O)O)C(=O)N3CCC[C@H]3CC(N)=O)cc2)cc1 [Compound 192] ({Benzoyl(4-(4-EtNHCO-PhO))-Ava}-KD[Dab]L[NMeE][β3hP]-NH2; N-terminus assumed),1.9
6,CCNC(=O)c1ccc(Oc2ccc(C(=O)NCCCCC(=O)N[C@@H](CCCNC(=N)N)C(=O)N[C@@H](CC(=O)O)C(=O)N[C@@H](CCN)C(=O)N[C@@H](CC(C)C)C(=O)N(C)[C@@H](CCC(=O)O)C(=O)N3CCC[C@H]3CC(N)=O)cc2)cc1 [Compound 196] ({Benzoyl(4-(4-EtNHCO-PhO))-Ava}-RD[Dab]L[NMeE][β3hP]-NH2; N-terminus assumed),1.7
7,CCNC(=O)c1ccc(Oc2ccc(C(=O)NCCCCC(=O)N[C@@H](CCCNC(=N)N)C(=O)N[C@@H](CC(=O)O)C(=O)N[C@@H](CCN)C(=O)N[C@@H](CC(C)C)C(=O)N(C)[C@H](C(=O)N3CCC[C@H]3CC(N)=O)[C@@H](C)CC)cc2)cc1 [Compound 197] ({Benzoyl(4-(4-EtNHCO-PhO))-Ava}-RD[Dab]L[NMeI][β3hP]-NH2; N-terminus assumed),2.6
8,CCNC(=O)c1ccc(Oc2ccc(C(=O)NCCCCCC(=O)N[C@@H](CCCNC(=N)N)C(=O)N[C@@H](CC(=O)O)C(=O)N[C@@H](CCN)C(=O)N[C@@H](CC(C)C)C(=O)N(C)[C@H](C(=O)N3CCC[C@H]3CC(N)=O)[C@@H](C)CC)cc2)cc1 [Compound 198] ({Benzoyl(4-(4-EtNHCO-PhO))-Ahx}-RD[Dab]L[NMeI][β3hP]-NH2; N-terminus assumed),5.1
9,CC(C)C[C@H](NC(=O)[C@H](CCN)NC(=O)[C@H](CC(=O)O)NC(=O)[C@H](CCC(=O)O)NC(=O)CCCCNC(=O)c1ccc(Oc2ccc(C(=O)NCCCCC(N)=O)cc2)cc1)C(=O)N(C)[C@@H](CCC(=O)O)C(=O)N1CCC[C@H]1CC(N)=O [Compound 199] ({X4-Ava}-ED[Dab]L[NMeE][β3hP]-NH2; N-terminus assumed),1.4
10,CC[C@H](C)[C@@H](C(=O)N1CCC[C@H]1CC(N)=O)N(C)C(=O)[C@H](CC(C)C)NC(=O)[C@H](CCN)NC(=O)[C@H](CC(=O)O)NC(=O)[C@H](CCC(=O)O)NC(=O)CCCCNC(=O)c1ccc(Oc2ccc(C(=O)NCCCCC(=O)O)cc2)cc1 [Compound 200] ({X11-Ava}-ED[Dab]L[NMeI][β3hP]-NH2; N-terminus assumed),7.4
11,CC[C@H](C)[C@@H](C(=O)N1CCC[C@H]1CC(N)=O)N(C)C(=O)[C@H](CC(C)C)NC(=O)[C@H](CCN)NC(=O)[C@H](CC(=O)O)NC(=O)[C@H](CCC(=O)O)NC(=O)CCCCNC(=O)c1ccc(Oc2ccc(C(=O)NCCCCC(N)=O)cc2)cc1 [Compound 201] ({X4-Ava}-ED[Dab]L[NMeI][β3hP]-NH2; N-terminus assumed),1.4
12,CC[C@H](C)[C@@H](C(=O)NCCCC[C@H](N)C(N)=O)N(C)C(=O)[C@H](CC(C)C)NC(=O)[C@H](CCN)NC(=O)[C@H](CC(=O)O)NC(=O)[C@H](NC(=O)[C@@H](N)CCCNC(=O)c1ccc(Oc2ccc(C(N)=O)cc2)cc1)[C@H](C)O [Compound 554] (H-[Orn](Benzoyl(4-OPh(4-CONH2)))[dT]D[Dab]L[NMeI][εLys]-NH2),0.89
13,Cc1ccc(C#Cc2ccc(S(=O)(=O)NCCC(=O)N[C@@H](CC(N)=O)C(=O)N[C@@H](CC(=O)O)C(=O)N[C@@H](C)C(=O)N[C@@H](CC(C)C)C(=O)N(C)[C@H](C(=O)N3CCC[C@H]3C(N)=O)C(C)C)s2)cc1 [Compound 589] ({X13-βAla}-NDAL[NMeV]P-NH2; N-terminus assumed),0.12

# Source: patent US20240199692A1 (priority 2019, published 2024)
